Measured values: PubChem BioAssay (NCI)
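Cells were grown in 96-well plates and exposed to each compound for 48 hours at five concentrations; endpoints were interpolated linearly between bracketing concentrations, or set to the highest concentration if not reached. TGI is the concentration that stops growth completely.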

Legend:
Assay in all cases: inhibition of tumour cell growth, NCI panel, 48 h
K-562 leukemia = system: K-562 leukemia
SNB-75 CNS = system: SNB-75 CNS
OVCAR-4 ovarian = system: OVCAR-4 ovarian
NCI-H460 lung = system: NCI-H460 lung
NCI-H23 lung = system: NCI-H23 lung
HT29 colon = system: HT29 colon
OVCAR-3 ovarian = system: OVCAR-3 ovarian
SW-620 colon = system: SW-620 colon
COLO 205 colon = system: COLO 205 colon
MDA-MB-231 breast = system: MDA-MB-231 breast
BT-549 breast = system: BT-549 breast

| Structure (SMILES) | TGI (K-562 leukemia) | TGI (SNB-75 CNS) | TGI (OVCAR-4 ovarian) | TGI (NCI-H460 lung) | TGI (NCI-H23 lung) | TGI (HT29 colon) | TGI (OVCAR-3 ovarian) | TGI (SW-620 colon) | TGI (COLO 205 colon) | TGI (MDA-MB-231 breast) | TGI (BT-549 breast) |
| --- | --- | --- | --- | --- | --- | --- | --- | --- | --- | --- | --- |
| COP12(OC)NC(=O)OC1(C(F)(F)F)c1ccccc1O2 (stereo not given) | > 100 µM | > 100 µM | > 100 µM | > 100 µM | > 100 µM | > 100 µM | > 100 µM | – | – | – | – |
| CCOC(=O)/C(C1=NCCN1C)=C(\O)c1ccccc1 | > 100 µM | – | > 100 µM | > 100 µM | > 100 µM | > 100 µM | > 100 µM | > 100 µM | > 100 µM | – | – |
| Cc1nc(C)c(N2CCN(Cc3ccccc3)CC2)c(=O)[nH]1 | > 100 µM | – | > 100 µM | > 100 µM | > 100 µM | > 100 µM | > 100 µM | > 100 µM | > 100 µM | > 100 µM | > 100 µM |
| N#Cc1ccc(C2OCC3CC=CCC3CO2)cc1 (stereo not given) | > 100 µM | > 100 µM | > 100 µM | > 100 µM | > 100 µM | > 100 µM | > 100 µM | > 100 µM | > 100 µM | – | – |
| c1cc2c(cc1C1OCC3C(c4ccc5c(c4)OCO5)OCC13)OCO2 (stereo not given) | > 100 µM | > 100 µM | > 100 µM | > 100 µM | > 100 µM | > 100 µM | > 100 µM | > 100 µM | > 100 µM | – | – |
| COc1ccc(/C(C)=C2\CCCN(Cc3ccccc3)C2)cc1 | 63.4 µM | 73.1 µM | > 100 µM | 53.5 µM | 79.6 µM | 39.5 µM | 37.4 µM | 36.1 µM | 32.5 µM | 57.9 µM | – |
| Cc1cn(CC(=S)NCCc2c[nH]c3ccccc23)c(=O)[nH]c1=O | > 100 µM | – | > 100 µM | – | > 100 µM | > 100 µM | > 100 µM | > 100 µM | > 100 µM | > 100 µM | > 100 µM |
| CN1CCS(=O)(=O)NC(Cc2ccccc2)C(=O)N2CCCC2C1=O (stereo not given) | > 100 µM | > 100 µM | > 100 µM | – | > 100 µM | > 100 µM | > 100 µM | > 100 µM | > 100 µM | – | – |
| CC(C)CCNC(=O)c1ccc(CNC(=O)/C=C/c2ccc3ccccc3c2)cc1 | > 100 µM | > 100 µM | > 100 µM | > 100 µM | > 100 µM | – | > 100 µM | > 100 µM | > 100 µM | > 100 µM | – |
| C/C(=C\[Si](C)(C)c1ccco1)C(C)(O)[C@H](C)O (stereo not given in full) | > 100 µM | – | 12.8 µM | > 100 µM | 86.4 µM | > 100 µM | > 100 µM | > 100 µM | > 100 µM | > 100 µM | – |
| Nc1ccc(Oc2ccc(C34CC5C6CC7(c8ccc(Oc9ccc(N)cc9)cc8)CC5C(C3)C(C7)C6C4)cc2)cc1 | > 100 µM | – | > 100 µM | > 100 µM | > 100 µM | > 100 µM | > 100 µM | > 100 µM | > 100 µM | > 100 µM | > 100 µM |
| COc1cc2ccnc(C#N)c2cc1OCc1ccccc1 | > 100 µM | 66.3 µM | > 100 µM | > 100 µM | > 100 µM | > 100 µM | > 100 µM | > 100 µM | – | – | – |
| N#CCCC1(CCC#N)S(=O)(=O)OCCOS1(=O)=O | – | > 100 µM | > 100 µM | – | > 100 µM | > 100 µM | > 100 µM | > 100 µM | > 100 µM | – | > 100 µM |
| COc1cc2c(cc1NC(=O)c1ccccc1)c1c(n2S(=O)(=O)c2ccccc2)CCN(S(=O)(=O)c2ccccc2)C1 | > 100 µM | > 100 µM | > 100 µM | > 100 µM | > 100 µM | > 100 µM | > 100 µM | > 100 µM | > 100 µM | – | > 100 µM |
| CNC(=O)O/N=C1\N(C)CN(c2ccccc2)C12CCN(CCCC(=O)c1ccc(F)cc1)CC2 | > 100 µM | 24.3 µM | > 100 µM | > 100 µM | > 100 µM | > 100 µM | > 100 µM | > 100 µM | 33.2 µM | > 100 µM | – |
| Cc1nn(CNc2ccc(F)c(Cl)c2)c(=S)n1/N=C/c1ccc(-c2ccc(Cl)cc2Cl)o1 | 15.5 µM | – | 50 µM | 33.7 µM | 38.8 µM | 41.4 µM | 33.1 µM | 29.2 µM | – | 34.9 µM | – |
| COc1ccc2c(O)c1-c1c(OC)ccc(c1O)SSc1ccc(OC)c(c1O)-c1c(OC)ccc(c1O)SS2 | 97.1 µM | > 100 µM | 69.8 µM | – | – | > 100 µM | > 100 µM | > 100 µM | > 100 µM | > 100 µM | – |
